Read-outs that look alike come from different tables or passages of the source.

The target in data set [1] is T1, Notch transcriptional activation complex (NTC) (Homo sapiens, UniProt P46531+Q06330).
T1 construct: made in house; host or cells: SF21 insect cells (baculovirus)
Description: Notch complex assembly assay (NTC AlphaScreen assay). Format: binding. As to the method: Notch Complex Assembly Assay
All recombinant proteins were expressed using baculovirus expression vectors in SF21 cells and purified. Unless otherwise stated, all assays contained 125 fmol of double stranded oligonucleotide, CSL, Notch1 and MAML1 proteins. Reactions were carried out in Tris-buffered saline with 0.1% Tween (“TBS-T”) buffer containing 0.2% bovine serum albumin (“BSA”) and 100 μg/mL salmon sperm DNA. Briefly, the Notch complex was assembled on a biotinylated double stranded (“DS”) oligonucleotide harboring one CSL binding site (5′-[…]-3′). Complex assembly was quantitated using ALPHASCREEN technology (Perkin Elmer). Proteins in the complexes were detected using specific antibodies to either MAML1 (Cell signaling, D3K7B), Notch1 (Abcam, 52627) or CSL (anti-His, Abcam 18184). Streptavidin conjugated […] beads (Perkin Elmer, 6760002) were used to bind the DS oligonucleotide, and Protein-A conjugated […] beads (Perkin Elmer, 6760137) were used to detect antibody-coated proteins. For screening compounds, Notch transcriptional activation complex (“NTC”) components were added to wells that already contained the inhibitor to be assayed and allowed to incubate for 30 minutes. The ALPHASCREEN plate (Perkin Elmer, 6008350) was then read on an Envision Plate reader (Perkin Elmer) as specified by the manufacturer.
In general terms: In Alpha technology, singlet oxygen from a donor bead excites a nearby acceptor bead.

The nature of data set [2]: Pharmacokinetic study in mouse plasma. The note with it: for Cmax: read-out: *C0/Cmax; for bioavailability: mouse. Format: in vivo. The procedure:
Pharmacokinetic studies were performed as previously described (Astudillo et al. (2016) Cancer Res). The following treatments were administered: NADi-260 via intraperitoneal (i.p.) route at 100 mg/kg, NADI-260 via intravenous route (i.v.) at 2 mg/kg, NADi-351 via i.p. at 10 mg/kg, NADi-351 via […] at 10 mg/kg and NADi-351 via oral route (PO) at 50 mg/kg. Blood samples were collected from each treatment group and their respective control grounds, plasma was separated from blood immediately by centrifugation at 4000 rpm for 10 min at 4° C. and stored below −70° C. until bioanalysis. All samples were processed for analysis by protein precipitation using acetonitrile and analyzed by fit for purpose LC-MS/MS method. Pharmacokinetic parameters were calculated using the non-compartmental analysis module of Phoenix WinNonlin (Version 6.3). Histological Analysis of Mouse Intestine Tissue

Another data set relates to Notch target genes. Kind of data set: Quantitative RT-PCR of Notch target genes in OE33 cells. The conditions noted are these: OE33, 48 h, compared to control (DMSO), normalized to TBP. The format is cell-based, human. The procedure:
Quantitative RT-PCR Other Assays
RNA was isolated from OE33 cells treated with either DMSO (vehicle) or NADi-351 for 48 h, using an RNA purification kit (Qiagen), following the manufacturer's instructions. cDNA was synthesized using the High Capacity cDNA Reverse Transcription kit (Applied Biosystems), according to the manufacturer's instructions. qPCR reactions were carried out in the Bio-Rad CFX96 thermal cycler using Sybr Green Master Mix (Bio-Rad). Gene expression was normalized to housekeeping gene TBP. […]

The target in data set [3] is T2, Notch1 transcriptional complex (Homo sapiens, UniProt P46531).
T2 construct: endogenous in cells; host or cells: OE33 cells, nuclear lysate
Kind of data set: 2xCSL DNA affinity precipitation, OE33 nuclear lysate: Notch1. Format: cell-based. The note with it: OE33, 48 hours of treatment. As to the method: DNA Affinity Purification
Streptavidin agarose beads (Pierce) were incubated with previously annealed 47-mer biotinylated dsDNA containing two high-affinity CSL binding sites facing forward (2×CSL binding DNA) or 2 mutated CSL binding sites (mut. DNA). Sequences were previously reported by Weaver et al. (2014) Cancer Res. The nuclear lysates of OE33 cell lines were incubated with the DNA streptavidin beads, and bound proteins were analyzed by Western blot. Protein analysis was carried out using conventional SDS-PAGE and transfer techniques. Blots were probed with the indicated antibody (“Ab”), using standard conditions, and detected using enhanced chemiluminescence (“ECL”). The following Ab were used: anti-Notch1^val1744 (4147S, Cell Signaling Technology), anti-Notch2^val1697 (SAB4502022, Sigma-Aldrich), anti-Notch3 (5276S, Cell Signaling), anti-CSL (5313S, Cell signaling), anti-SP1 (5931S, Cell Signaling), and anti-GAPDH (ab9483 Abcam).

Data set [4] has as its system esophageal adenocarcinoma patient-derived xenograft (EAC47 PDX tumor). Description: Esophageal adenocarcinoma patient-derived xenograft (PDX) model. Format: in vivo. The note with it: NSG mice, 25 days of treatment. The procedure:
Mouse Xenograft Studies Six-week-old NOD-SCID gamma (“NSG”) mice were purchased from Jackson Laboratories and CD-1 Nude mice were purchased from Charles River Laboratories. For the cell line based xenografts assay, 5×10^6 OE19 cells in 200 μl serum-free culture medium were injected subcutaneously per mouse. The mice in the treatment group were injected with 15 mg/kg NADi-351 daily, and the mice in the control group were injected with the same volume of vehicle (DMSO). Subcutaneous tumor growth was measured once every 4 days using calipers along with body weight. The experiment was discontinued on day 28. PDX cancer models were established, as described in Zhang et al, Establishment of Patient-Derived Xenograft (PDX) Models of Human Breast Cancer, Current Protocols in Mouse Biology, 3:21-29 (2013), in NSG mice. Briefly, 10 mm^3 pieces of primary EAC47 PDX tumor were transplanted subcutaneously into the flanks of NSG mice using a 13G telescopic needle. When the tumors reached 200 mm^3, the mice were split into two uniform groups for treatment. NADi-351 (20 mg/kg) and vehicle were administered daily by intraperitoneal (“IP”) injection for 24 days. Tumor growth was monitored every 4 days and tumor volume was measured by the formula: Volume=(S×S×L)/2, where S and L are the short and long dimensions. […]
(In xenograft studies the graft and the host belong to different species.)

Data set [5] can be described thus: Pharmacokinetic study in mouse plasma. Format: in vivo. The note with it: iv, i.v. 10 mg/kg.
Where [6] appears, read: ip, i.p. 10 mg/kg, mouse plasma.
Setting [7] is: iv, i.v. 10 mg/kg, mouse plasma.
[8] abbreviates: po, p.o. 50 mg/kg, mouse plasma.

T1 sequence (P46531 1754-2555 limits assumed): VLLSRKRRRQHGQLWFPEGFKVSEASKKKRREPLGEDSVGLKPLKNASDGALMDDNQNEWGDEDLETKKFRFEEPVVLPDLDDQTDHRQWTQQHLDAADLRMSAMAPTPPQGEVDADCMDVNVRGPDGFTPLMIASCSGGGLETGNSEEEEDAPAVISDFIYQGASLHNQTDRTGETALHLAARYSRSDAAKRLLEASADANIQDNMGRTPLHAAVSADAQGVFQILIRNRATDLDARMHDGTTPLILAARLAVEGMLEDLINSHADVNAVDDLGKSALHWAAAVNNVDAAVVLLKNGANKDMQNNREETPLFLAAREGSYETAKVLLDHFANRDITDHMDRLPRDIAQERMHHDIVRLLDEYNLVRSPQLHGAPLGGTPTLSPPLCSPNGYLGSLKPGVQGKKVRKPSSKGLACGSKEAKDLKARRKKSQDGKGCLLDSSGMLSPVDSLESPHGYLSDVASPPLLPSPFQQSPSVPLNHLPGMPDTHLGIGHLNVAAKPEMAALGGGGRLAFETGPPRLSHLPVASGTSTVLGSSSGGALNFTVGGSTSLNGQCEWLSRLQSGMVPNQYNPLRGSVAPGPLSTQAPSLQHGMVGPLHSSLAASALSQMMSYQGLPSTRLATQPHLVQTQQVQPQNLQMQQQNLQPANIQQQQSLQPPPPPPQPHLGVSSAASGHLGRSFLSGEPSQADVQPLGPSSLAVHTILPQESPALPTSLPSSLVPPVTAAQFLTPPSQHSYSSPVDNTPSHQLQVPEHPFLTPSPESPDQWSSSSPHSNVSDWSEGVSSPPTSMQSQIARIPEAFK
T1 sequence (Q06330 whole entry): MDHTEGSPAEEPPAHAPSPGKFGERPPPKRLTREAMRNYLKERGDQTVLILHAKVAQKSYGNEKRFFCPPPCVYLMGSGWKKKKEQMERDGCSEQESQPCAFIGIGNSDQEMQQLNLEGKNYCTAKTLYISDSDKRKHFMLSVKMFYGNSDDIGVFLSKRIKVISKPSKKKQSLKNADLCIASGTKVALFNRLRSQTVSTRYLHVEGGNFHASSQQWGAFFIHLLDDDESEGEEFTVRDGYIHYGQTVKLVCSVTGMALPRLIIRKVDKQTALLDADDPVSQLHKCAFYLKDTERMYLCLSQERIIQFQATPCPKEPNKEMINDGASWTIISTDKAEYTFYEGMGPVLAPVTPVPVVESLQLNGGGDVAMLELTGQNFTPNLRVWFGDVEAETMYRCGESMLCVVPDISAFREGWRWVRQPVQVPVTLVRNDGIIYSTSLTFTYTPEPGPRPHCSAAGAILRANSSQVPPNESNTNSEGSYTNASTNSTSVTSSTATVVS
T2 sequence (P46531 1754-2555 limits assumed): as the sequence (P46531 1754-2555 limits assumed) above
T2 sequence (Q06330 whole entry partner): as the sequence (Q06330 whole entry) above

As a reminder, the IC50 is the concentration needed to halve the response being measured. The term AUC(0-inf) denotes total exposure, with the tail of the curve extrapolated. Lower therefore signals less exposure. The AUC(0-t) is the area under the concentration-time curve up to a stated or last time point. One may read the Tmax as the time from dosing to the highest level. Broadly, the clearance is the rate of elimination divided by the concentration. High values mean a high capacity for elimination, low ones a low capacity for elimination. A word on the half-life: it is the time needed for the level to fall by half in the phase considered. A high value points to slow loss. In the case of `COc1cc(/C(C)=C2\SC(=S)N(CC(=O)N(C)C)C2=O)cc(F)c1OCc1nnc[nH]1` [NADi-351, (Z)-2-(5-(1-(4-((1H-1,2,4-triazol-3-yl)methoxy)-3-fluoro-5-methoxyphenyl)ethylidene)-4-oxo-2-thioxothiazolidin-3-yl)-N,N-dimethylacetamide], in data set [1] (Table E, NTC AlphaScreen assay, read-out: *IC50), the IC50 was determined as 2.4 nM. Also, the “increase in potency over NADi-260” value in data set [1] (methylated at the alkene vs NADi-260) came out at 10 fold. In addition, in data set [2] (setting [6]), the AUC(0-inf) came out at 4550 ng·h/mL, the AUC(0-t) was 4550 ng·h/mL, the Tmax amounted to 15 min and the Cmax was 8200 ng/mL. For the same molecule, in data set [2] (setting [7]), the AUC(0-inf) came out at 4570 ng·h/mL, the clearance was 36.5 mL/min/kg and the half-life is 87.6 min. In addition, in data set [2] (iv, i.v. 10 mg/kg, mouse plasma, read-out: Vss), the Vd stood at 0.8 L/kg. In addition, the “metabolic stability compared with NADi-260” value in data set [2] (mouse plasma, FIG. 3) was “significantly improved metabolic stability”. Moreover, the bioavailability result in data set [2] (FIG. 3) is reported as “excellent bioavailability”. The bioavailability in data set [2] (plasma, po, p.o. 50 mg/kg, read-out: % F) was over 100%. Further, in data set [2] (setting [8]), the area under the curve AUC(0-inf) was found to be 38000 ng·h/mL, the AUC(0-t) came to 37900 ng·h/mL, the Tmax was 30 min and the Cmax turned out to be 17500 ng/mL. For the same molecule, the “expression of Notch target genes” value in the data set with Notch target genes is “decreased the expression of Notch target genes”. In data set [3], the “formation of the Notch1 intracellular domain (N1icd) complex” value is “inhibited the formation”. The “body weight of the subjects” value in data set [4] was “remained constant”. Also, the “volume of the tumor” value in data set [4] (compared to control) is “significantly inhibited compared to control”. In addition, the AUC(0-t) in data set [5] stood at 4570 ng·h/mL. Also, in data set [5] (back extrapolated, read-out: *C0/Cmax), the Cmax was 15900 ng/mL.

Values taken from patent publication US12275725B2, “Inhibitors of the notch transcriptional activation complex and methods for use of the same” (University of Miami, priority 2019, dated 2025).
